Reference: PubChem BioAssay (NCI)
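1) Cells in 96-well plates. 2) Compound, 48 h, 5 concentrations. 3) Linear interpolation between surrounding doses. 4) Unreached endpoint = highest concentration. GI50 marks 50% less growth. TGI is the concentration that stops growth completely.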

How the values were obtained:
Assay in all cases: DTP human tumour cell line panel, 48 h
HT29 colon = tested on: HT29 colon
TK-10 renal = tested on: TK-10 renal
SW-620 colon = tested on: SW-620 colon
RPMI-8226 leukemia = tested on: RPMI-8226 leukemia
OVCAR-3 ovarian = tested on: OVCAR-3 ovarian
HOP-62 NSCLC = tested on: HOP-62 NSCLC
OVCAR-5 ovarian = tested on: OVCAR-5 ovarian
NCI-H226 lung = tested on: NCI-H226 lung
HCT-15 colon = tested on: HCT-15 colon
HCT-116 colon = tested on: HCT-116 colon

Row | SMILES | GI50 (HT29 colon) [µM] | TGI (HT29 colon) [µM] | GI50 (TK-10 renal) [µM] | TGI (TK-10 renal) [µM] | GI50 (SW-620 colon) [µM] | TGI (SW-620 colon) [µM] | GI50 (RPMI-8226 leukemia) [µM] | TGI (RPMI-8226 leukemia) [µM] | GI50 (OVCAR-3 ovarian) [µM] | TGI (OVCAR-3 ovarian) [µM] | GI50 (HOP-62 NSCLC) [µM] | TGI (HOP-62 NSCLC) [µM] | GI50 (OVCAR-5 ovarian) [µM] | TGI (OVCAR-5 ovarian) [µM] | GI50 (NCI-H226 lung) [µM] | TGI (NCI-H226 lung) [µM] | GI50 (HCT-15 colon) [µM] | TGI (HCT-15 colon) [µM] | GI50 (HCT-116 colon) [µM] | TGI (HCT-116 colon) [µM]
1 | COc1cc(/C=N/NC(=O)c2ccc(C(F)(F)F)nc2Nc2ccc(Cl)cc2C)ccc1O | 4.45 | 16.2 | 5.13 | 17.3 | 2.77 | 12.1 | 2.11 | 6.1 | 1.74 | 13 | 3.78 | 19.7 | 2.9 | 15.6 | 1.28 | 5.01 | 0.987 | 10.4 | 2.95 | 12.7
2 | CN(C)CC[N+]1=Nc2cccc3cccc(c23)N1 |  | > 100 |  | > 100 |  | > 58 |  | > 66.8 |  | > 100 |  | > 100 |  | > 100 |  | > 100 |  | > 100 |  | > 72.7
3 | COC1=CC(c2ccc[nH]2)=N/C1=C\c1[nH]c(C)c(C(=O)OC(C)C)c1C | 0.0236 | 0.439 | 0.0541 | 2.49 | 0.0336 | 1.44 | 0.223 | 2.47 | 0.05 | 0.586 | 0.123 | 1.84 | 0.144 | 1.95 | 0.0795 | 1.28 | 0.026 | 1.14 | 0.0274 | 1.07
4 | Cn1cc(C2=C(c3cn(C)c4ncccc34)C(=O)NC2=O)c2ccccc21 | 6.47 | > 24.1 | 10.8 | > 25 | 9.7 | > 25 | 9.04 | > 23.2 | 9.93 | > 25 | 10.9 | > 25 | 10.4 | > 25 | 5.45 | 16.5 | 7.34 | > 25 | 8.39 | > 25
5 | O=CN/C=C/c1cc(O)ccc1O |  | 56.5 |  | 31.6 |  | 21.5 |  | 78.2 |  | 22.5 |  | > 100 |  | > 100 |  | > 88.1 |  | 28.2 |  | 29.2
6 | Cc1cc(I)cc(CN(C)CCCCN2CCCCC2)c1O | 3.21 | 14.2 | 15.4 | 31.1 | 13.3 | 27.5 | 8.68 | 25.5 | 20 | 53.4 | 14.4 | 28.3 | 14.3 | 40.5 | 25.7 | > 100 | 6.08 | 25.8 | 8.78 | 21.1
7 | COc1cc(-c2nn(-c3ccc(NC(=O)c4ccc(Cl)c(C(F)(F)F)c4)cc3)cc2-c2ccncc2)ccc1Cl | 1.8 | 4.25 | 4.56 | > 100 | 3.31 | > 100 | 1.79 | 6.47 | 2.98 | > 30.9 | 2.07 | 7.07 | 4.58 | > 39.6 | 5.31 | > 100 | 1.42 | 4.21 | 2.81 | > 58.2
8 | COc1ccccc1C12OC(=O)C1(C)Oc1ccccc1C2=O (stereo not given) |  | > 100 |  | > 100 |  | > 100 |  | > 100 |  | > 100 |  | > 100 |  | > 100 |  | > 100 |  | > 100 |  | > 100
